Results from the OPERA property sets (Mansouri et al. 2018).
In brackets after ≈: the same amount, converted by molar mass.

Conditions: not given

| Structure (SMILES) | logP |
| --- | --- |
| CCCCCCl | 2.73 |

Same assay, conditions: 25 °C

| Structure (SMILES) | solubility [mM] |
| --- | --- |
| CCCCOC | 102 (≈ 9010 µg/mL) |
| CCCOCC | 173 (≈ 15200 µg/mL) |
| CCOC(=O)CCCCCC(=O)OCC | 9.4 (≈ 2030 µg/mL) |
| Clc1ccccc1Br | 0.383 (≈ 73.4 µg/mL) |
| CCCCCC(=O)OCC | 4.36 (≈ 629 µg/mL) |
| CCCCCCCCCC(=O)OCC | 0.0793 (≈ 15.9 µg/mL) |
| CC(C)C(C)(C)O | 407 (≈ 41500 µg/mL) |
| CCCOC(=O)CC | 45.6 (≈ 5300 µg/mL) |
| CC(C)CC(C)(C)O | 113 (≈ 13200 µg/mL) |
| CCOC(C)C | 278 (≈ 24500 µg/mL) |
| CCCC(Cl)Cl | 3.96 (≈ 504 µg/mL) |
| CCOC(=O)CCCCCCCC(=O)OCC | 1.02 (≈ 250 µg/mL) |
| CCCCCCCC(=O)OCC | 0.407 (≈ 70.1 µg/mL) |
| C#CCCCCCCC | 0.068 (≈ 8.45 µg/mL) |
| CCCCCCC=O | 10.9 (≈ 1250 µg/mL) |
| CCCCCC[C@@H](O)CC | 2.18 (≈ 315 µg/mL) |
| CCC(C)C(O)C(C)CC (stereo unspecified) | 3.08 (≈ 445 µg/mL) |
| CCC(C)(O)C(C)(C)C (stereo unspecified) | 53.6 (≈ 6980 µg/mL) |
| COc1ccc(NC(C)=O)cc1 | 91.1 (≈ 15100 µg/mL) |
| CCC(=O)OC(C)C | 51.2 (≈ 5950 µg/mL) |

| Structure (SMILES) | solubility [mM] |
| --- | --- |
| C=CC(O)CC (stereo unspecified) | 1050 (≈ 90000 µg/mL) |
| CCC(C)C(C)(C)O (stereo unspecified) | 135 (≈ 15700 µg/mL) |
| CCOC(=O)CCCCCCC(=O)OCC | 2.95 (≈ 679 µg/mL) |
| CCCCCCCCCC(C)O (stereo unspecified) | 1.15 (≈ 197 µg/mL) |
| CCCCC(=O)OCC | 17 (≈ 2210 µg/mL) |
| CCC(=O)C(C)C | 155 (≈ 15500 µg/mL) |
| C=COC=C | 77.6 (≈ 5440 µg/mL) |
| Brc1ccc(Br)c(Br)c1 | 0.0222 (≈ 7 µg/mL) |
| CCCCCCCCC(=O)OCC | 0.158 (≈ 29.5 µg/mL) |
| C/C=C\C | 10.3 (≈ 580 µg/mL) |
| CC(C)CCOC=O | 29.3 (≈ 3400 µg/mL) |
| Ic1cccc(I)c1 | 0.0286 (≈ 9.43 µg/mL) |
| CCCCCCC(=O)OCC | 1.83 (≈ 290 µg/mL) |
| CC(C)CC(C)CO (stereo unspecified) | 25.1 (≈ 2910 µg/mL) |
| CC(C)COC=O | 99.9 (≈ 10200 µg/mL) |
| Clc1ccccc1I | 0.291 (≈ 69.4 µg/mL) |
| FC(F)(F)CCl | 77.7 (≈ 9200 µg/mL) |
| CCCCOC(=O)c1ccc(N)cc1 | 1.75 (≈ 337 µg/mL) |
| Clc1cccc(I)c1 | 0.288 (≈ 68.6 µg/mL) |

Same assay, conditions: 27 °C

| Structure (SMILES) | solubility [mM] |
| --- | --- |
| Ic1ccccc1I | 0.0591 (≈ 19.5 µg/mL) |
